Experimental data published in US20170036969A1, “NITRIFICATION INHIBITORS” (BASF SE, priority 2014, published 2017).

Test system: nitrification in soil sampled fresh from a field (e.g. Limburgerhof)
Assay: Soil nitrification inhibition test (48 well plate, ammonium sulfate + NaClO3, colour reaction read at 540 nm)
Conditions: dose of 10 ppm, room temperature, up to 72 hrs
Description: Soil was sampled fresh from a field (e.g. Limburgerhof), dried and sieved through a 500 μm sieve. Approximately 200 mg of soil were placed into each well of a 48 well plate. Compounds, or DMSO alone, were added at a concentration of 10 ppm, dissolved in 1% DMSO. 6 μmol ammonium sulfate was added per well as well as 4.8 mg NaClO3.
Subsequently, the samples were incubated at room temperature for up to 72 hrs. After the incubation period 64 mg KCl were added and mixed. 25 μl of the supernatant were placed into a fresh plate and 260 μl of a color reaction solution (from Merck Nr 1.11799.0100) were added.
Measurements were taken with a Tecan plate Reader at 540 nm wavelength.
The inhibition in % is calculated by the equation [(a−b)/a]×100, wherein a is the nitrification rate in the presence of the control (which is assumed to be 100%), and b is the nitrification rate in the presence of the tested compound.

Structure (SMILES) | Rating (inhibition; best rating obtained for a compound)
C#CCOc1ccc(OCC#C)cc1 | 66%
C#CCOc1ccc(C#N)cc1 | 53%
C#CCOc1cc(NC(=S)N(N)CCO)c(F)cc1Cl | 56%
C#CCOc1ccc(Cl)cc1 | 59%
C#CCOc1cc(NC=O)c(F)cc1Cl | 48%
C#CCOc1ccc(NC(=O)N(C)C)cc1Cl | 55%
C#CCOc1ccc(C(=O)N2CCOCC2)cc1 | 57%
C#CCOc1ccc(OC)cc1 | 58%
C#CCOc1cccc(C(O)C#C)c1 (stereo not shown) | 61%
C#CCOc1cc(N)c(F)cc1Cl | 62%
